The values that follow come from publication doi:10.1101/2025.03.30.646192v1 (biorxiv, 2025).

Molecules are shown by their SMILES.

The target of one experiment is T1, D2R (D2 dopamine receptor; HA-hDRD2-SmBiT) (Homo sapiens, UniProt P14416). Kind of experiment: competition with [3H]-raclopride, membranes.
T1 sequence (P14416 whole entry): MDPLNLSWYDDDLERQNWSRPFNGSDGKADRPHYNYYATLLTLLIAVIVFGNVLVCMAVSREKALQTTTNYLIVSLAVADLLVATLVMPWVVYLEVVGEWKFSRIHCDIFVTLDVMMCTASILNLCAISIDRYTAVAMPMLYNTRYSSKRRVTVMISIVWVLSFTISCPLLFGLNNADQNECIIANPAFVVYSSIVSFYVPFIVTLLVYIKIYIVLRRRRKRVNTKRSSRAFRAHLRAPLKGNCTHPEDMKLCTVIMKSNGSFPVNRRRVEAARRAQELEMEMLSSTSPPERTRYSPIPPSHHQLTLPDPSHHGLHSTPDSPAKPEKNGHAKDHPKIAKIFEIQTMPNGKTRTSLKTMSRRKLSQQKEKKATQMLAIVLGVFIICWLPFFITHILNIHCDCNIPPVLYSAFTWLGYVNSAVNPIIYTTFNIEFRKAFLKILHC
Details: not given
`NCCc1cccc(O)c1` [m-tyramine] gave a Ki of 1.86 µM. The compound `NC[C@H](O)c1ccc(O)c(O)c1` [noradrenaline] gave a Ki of 9.55 µM. `NCCc1ccc(O)cc1` [p-tyramine] showed a Ki of 77.6 µM.

Another experiment concerns the target T1, D2R (D2 dopamine receptor; HA-hDRD2-SmBiT). Kind of experiment: competition with [3H]-raclopride, membranes.
Details: not given
The source holds these as a separate data set.
`CNC[C@H](O)c1ccc(O)c(O)c1` [adrenaline]: the Ki was 7.08 µM. Same read-out and setting: with `NCC(O)c1ccccc1` (stereo not drawn) [hydroxyphenethylamine] the figure was 195 µM; with `CNCCc1ccc(O)c(O)c1` [methyldopamine], 0.0603 µM; with `CNCCc1ccccc1` [n-methyl-phenetylamine], 17 µM. `NCC(O)c1cccc(O)c1` (stereo not drawn) [norphenylephrine] gave a Ki of 17 µM. The same measure, in the same setting: the result for `NC[C@H](O)c1ccc(O)cc1` [octopamine] reads 347 ± 60.1 µM; that for `CNC[C@H](O)c1cccc(O)c1` [phenhyleprine], 15.1 µM.

Take `CNCC(O)c1ccc(O)cc1` (stereo not drawn) [synephrine]: the Ki is 87.1 µM.

Still in this experiment, the particulars now being: pH 7.4, RT, 10 mM MgCl2, orthosteric.
Compound `NCCc1ccccc1` [phenetylamine] gave a Ki of 4.73 ± 0.52 pKi.
